In patent publication US10336984B2, “Method of molecular stress control” (CPSI Holdings LLC, priority 2010, dated 2019):
“Also recorded” adds a separate entry of the source. Where two headings read alike, the source gives them in different places.

Legend:
human hepatocytes = experiment: Hypoxic normothermic stress of hepatocytes with supplements; type: cell-based
Procedure: (§1) As an example, hepatocytes and C3A cells were placed under hypoxic conditions […] (normothermic incubation) in various commercial media with and without salubrinal or resveratrol. As with the cold thermal stress model, through the application of the current invention, preferential selection of either cell population was possible. The table in FIG. 10 summarizes the representative response of the various liver cells when placed into the two stress model conditions of thermal and hypoxic stress.
(§2) Stress Regime 2—Hypoxia: Cells were held at 37° C. in an incubator with reduced levels of O2 for a 24 hour period. Two hypoxia models were utilized including increased CO2 levels providing for an 80% air: 20% CO2 ratio (versus standard 95% air: 5% CO2) as well as limited gas exchange using isolated environmental chambers. This procedure is designed to model various intervals of suboptimal culture conditions associated with cell processing and utilization.

rat primary hepatocytes = experiment: Hypothermic stress of rat primary hepatocytes with supplements; type: cell-based
Procedure: (§3) Thermal Stress Regime: Cells were seeded into 96-well tissue culture plates (13,000 cells per well) and cultured for 24 hours into a monolayer. Culture media was decanted from experimental plates and replaced with 100 μl/well of the pre-cooled (4° C.) solution (complete growth media, HBSS with calcium and magnesium, ViaSpan, or OptiSol). Cultures were maintained at 4° C. for 18 hours to 9 days. Following cold storage, the media were decanted, replaced with 100 μl/well of room temperature (˜25° C.) complete culture media and then placed into standard culture conditions (37° C., 5% CO2) for recovery and assessment.
(§4) Cell Viability Assay: To assess cell viability the metabolic activity assay, alamarBlue™ (Invitrogen) was utilized. Cell culture medium was decanted from the 96-well plates and 100 μl/well of the working alamarBlue™ solution (1:20 dilution in HBSS) was applied. Samples were then incubated for 60 minutes (±1 min) at 37° C. in the dark. The fluorescence levels were analyzed using a Tecan SPECTRAFluorPlus plate reader (TECAN, Austria GmbH). Relative fluorescence units were converted to a percentage compared to normothermic controls set at 100%. Readings were taken immediately following removal from hypothermic storage as well as 24 and 48 hours of recovery.
In FIG. 19, the C3A cells were then substituted with rat primary hepatocytes. […]

[1] = system: human corneal endothelial cells (HCECs); experiment: Viability of HCECs after hypothermic storage (alamarBlue); type: cell-based; conditions: for viability at 10 µM / viability at 25 µM: Homo sapiens, HCEC; for viability at 10 µM: 10 μM salubrinal; for survival difference between ViaSpan with and without tunicamycin: 3 days at 4° C.
Procedure: as §3, §4
Chemical Additions: Modulation of the UPR was accomplished through the use of salubrinal (UPR-specific inhibitor), tunicamycin (UPR-specific inducer), resveratrol, AKT, Vitamin D3, caspase and MPTP inhibitors, among others. For instance, salubrinal (EMD Chemicals Inc., Gibbstown, N.J.) was added to media at working concentrations of 10 and 25 μM immediately before utilization. Tunicamycin (EMD Chemicals Inc.) was added to ViaSpan at a working concentration of 2 ug/mL immediately prior to use. All chemicals were diluted in water, ethanol, or DMSO prior to utilization and DMSO controls were conducted to ensure no effect of the dilution vehicle.

[2] = system: human corneal endothelial cells (HCECs); experiment: Cell death populations in HCECs after cold storage (flow cytometry, fluorescence microscopy); type: cell-based
Procedure: Fluorescence Microscopy: Samples in 96-well plates were assessed for the presence of live, necrotic or apoptotic cells through triple labeling using Hoechst [81 μM], propidium iodide [9 μM], and Y oPro-1 [0.8 μM] (Molecular Probes, Eugene, Oreg.), respectively. Probes were added to samples and incubated in the dark for 20 minutes prior to imaging. To assess membrane integrity a dual label of calcein-AM [4 μM] and propidium iodide [9 μM] was utilized. Dual label probes were added to the samples and incubated for 30 minutes in the dark. All fluorescence images of labeled cells were obtained at 1, 4, 8 and 24 hours post-storage using a Zeiss Axiovert 200 fluorescent microscope with the AxioVision 4 software (Zeiss, Germany).
Flow Cytometric Analysis: Counts of the unlabeled (live), necrotic (PI [1.5 μM]) and apoptotic (YOPRO-1 [0.1 μM]) labeled cells were obtained using microfluidic flow cytometry (Millipore). Probes were added to each sample and incubated in the dark for 20 minutes prior to cell collection. Counts of cells with polarized and depolarized mitochondria (JC-1 [7.7 μM]) were also obtained via microfluidic flow cytometry. Samples were labeled, collected and analyzed at 1, 4, 8 and 24 hours post-storage. Analysis was performed using the CytoSoft 5.2 software for the Guava PCA-96 system.
Following the observation of differences in viability through the targeted modulation of the UPR, we next analyzed what effect this targeted approach has on the level and timing of cell death following hypothermic storage. HCECs were held at 4° C. for 24 hours in various solutions (CGM, HBSS, ViaSpan and OptiSol) with and without the addition of 25 μM salubrinal and assessed via microfluidic flow cytometry and fluorescence microscopy. Analysis of the apoptotic and necrotic populations was conducted to examine the effect UPR inhibition (25 μM salubrinal) had on cell death populations post-storage.

human hepatoma (C3A) = type: cell-based
From the text: Samples were processed utilizing industry standard media (Roswell Park Memorial Institute, RPMI, media), cryo-protective agents and techniques. Cell survival response curves were plotted against varying concentrations of DMSO. Samples were frozen, thawed, cultured to allow for recovery, and then frozen again. This process was repeated 4 times (e.g. Freeze #1, Freeze #2, Freeze #3, Freeze #4) over experimental periods of several weeks (FIG. 8).
As the intent of cell-guard is to reduce the negative effects of stress response of cells during normothermic culture processing, a series of studies using the freeze stress model were conducted examining the potential of stress response modulation during recovery culture. The studies examined the effect of modulating the apoptotic cell death mechanism, caspase cascade, as well as mitochondrial oxidative stress pathways. While numerous studies have looked at caspase and free radical formation inhibition during stresses including freezing, no studies have been reported looking to the effect of post-processing manipulation.
As such, in FIG. 9, C3A samples were frozen using industry standard protocols in culture media+0%, 2%, 5%, and 10% DMSO. […]

[3] = system: human lung fibroblasts (IMR-90); experiment: Cold exposure of human lung fibroblasts (IMR-90); type: cell-based
Procedure: Preliminary studies into Unfolded Protein Response (UPR) pathways in cell death associated with cell stress has provided promising results. The UPR activator, tunicamycin, was applied in a thermal stress regime. In FIG. 5, human lung fibroblasts (IMR-90) were exposed to the cold (4° C.) in cell culture media, Viaspan (with and without tunicamycin), or ViaSpan with DMSO (carrier solution for tunicamycin). The DMSO control acts as a chemical chaperone. It was hypothesized that the addition of tunicamycin would result in an increased level of cell death following thermal stress.
With this discovery, additional studies were conducted under a more stressful thermal regime designed to completely destroy all cells. […] In subsequent studies, tunicamycin was added subsequent to (rather than during) the cold stress period and compared to samples without addition. (See FIG. 5).
FIG. 5 also depicts the viability of human lung fibroblasts (IMR-90) following two days of cold exposure with the addition of resveratrol (FR234). […] Yet, when tunicamycin is added during the recovery phase, this agent has the predicted lethal effect as described in the UPR literature.

[4] = system: human hepatoma C3A cell lines; experiment: C3A cells three days under optimal culture conditions with FR-234 (alamarBlue); type: cell-based; conditions: highest dose, 100 μg/mL; three days at 37° C., 5% CO2
Procedure: FIG. 7 assesses the effect of the stress modulator, resveratrol (FR-234), exposure for three days under optimal culture conditions in human hepatoma C3A cell lines. In this graph, C3A cells were stored for three days under optimal culture conditions (37° C., 5% CO2) with a range of FR-234 doses. Cells were removed from storage after three days. Storage solutions were replaced with fresh culture media and viability was assessed at 1, 2, and 3 days post-storage using the metabolic activity indicator, alamarBlue.

[5] = system: C3A, human liver cancer cells; experiment: Hypoxic normothermic stress of C3A cells with supplements; type: cell-based; conditions: normothermic hypoxic stress regime
Procedure: as §1, §2

[6] = system: primary human hepatocytes; experiment: Hypothermic stress of primary human hepatocytes with supplements; type: cell-based; conditions: hypothermic exposure at 4° C.
Procedure: as §3, §4
As such, in FIG. 20, primary human hepatocytes were then subjected to the same hypothermic stress paradigm. […]

[7] = system: RM-9 prostate cancer cells; experiment: Survival of RM-9 prostate cancer cells under cryotreatment (freezing) stress; type: cell-based, mouse; conditions: high doses
From the text: Experiments have been completed and have expanded the scope of study to (1) include natural agents as part of the formulation and (2) target various stress pathways that may be activated in cells when they are bioprocessed. A variety of agents were used in addition to resveratrol. Of these, Vitamin D3 (i.e. calcitriol) at high doses protects the cells. […] Here, the stress regime included cryotreatment (freezing).

## O=C(/C=C/c1ccccc1)NC(NC(=S)Nc1cccc2cccnc12)C(Cl)(Cl)Cl (centres unmarked) [salubrinal]
Human hepatocytes
  cell viability of hepatocytes: extended the cell viability of hepatocytes
Rat primary hepatocytes; hypothermic exposure at 4° C.
  protection of rat primary hepatocytes from hypothermic stress: failed to protect
[1]; 24 hours at 4° C. in CGM, 25 μM salubrinal
  viability over the 48 hour recovery period: retained
[1]; 24 hours at 4° C. in HBSS and ViaSpan
  effect of salubrinal addition on viability: no differences
[1]; 48 hour storage in ViaSpan
  effect of salubrinal supplementation on viability: no effect
[1]; 48 hour storage in ViaSpan with salubrinal supplementation
  viability: 76.7%
[1]; CGM and OptiSol, all samples with and without salubrinal
  viability following 2 days of cold storage: complete loss in viability
[1]; FIG. 11, 18 hours of hypothermic storage
  HCEC tolerance to stress: improves human corneal endothelial cell (HCEC) tolerance to stress
[1]; HCEC samples experiencing profound cold-induced failure
  increase in cell survival: 2 fold
[1]; 48 h, 2 days at 4° C. in HBSS, read-out: overall viability
  viability at 10 µM: 26.9%
[1]; 48 h, 2 days at 4° C. in HBSS, 25 μM salubrinal, read-out: overall viability
  viability at 25 µM: 37.8%
[1]; 24 hours at 4° C. in CGM, read-out: post-storage viability
  viability at 10 µM: 23.1%
[1]; 24 hours at 4° C. in CGM, 25 μM salubrinal, read-out: post-storage viability
  viability at 25 µM: 28%
[1]; 24 hours at 4° C. in OptiSol, read-out: post storage viability
  viability at 10 µM: 52.3%
[1]; 24 hours at 4° C. in OptiSol, 25 μM salubrinal, read-out: post storage viability
  viability at 25 µM: 53.9%
[2]; 25 μM salubrinal, 24 hours at 4° C.
  total cell retention during hypothermic exposure: increased retention of total cells
[2]; 25 μM salubrinal, 24 hours at 4° C., each time point
  levels of apoptosis, inhibited vs uninhibited: elevated
[2]; 25 μM salubrinal, 24 hours at 4° C., normalized to normothermic control
  necrotic populations, UPR inhibited vs uninhibited: similar
[2]; CGM storage 24 hours, calcein-AM and propidium iodide
  membrane integrity and cellular attachment during recovery: marked increase

## CC(=O)N[C@@H](CS)C(=O)O [NAC, N-Acetyl-Cysteine]
Human hepatoma (C3A)
  effect on cell division in extended post-stress culture: no downstream negative effect on cell division
Human hepatoma (C3A); 10% DMSO condition, supplement for first 24 hours post-processing
  overall increase in sample recovery: ~20%

## tunicamycin
[3]; post stress addition of tunicamycin (recovery phase)
  cell survival: reduction in cell survival
[3]; tunicamycin in Viaspan during cold (4° C.) exposure
  thermal tolerance: increase in thermal tolerance
[3]; two days of cold exposure
  effect of tunicamycin post-cold on samples exposed to resveratrol: negating the positive effects of resveratrol
[1]; 3 days at 4° C. in ViaSpan, tunicamycin 2 ug/mL, 0 hours recovery
  cell survival immediately post-storage: ~60%
[1]; 24 hours of recovery
  survival difference between ViaSpan with and without tunicamycin: 29.0%
[1]; 48 hours post-storage
  survival difference between ViaSpan with and without tunicamycin: 53.9%
[1]; tunicamycin added during cold exposure
  HCEC survival during the recovery period: significant decrease in HCEC survival

## Oc1ccc(C=Cc2cc(O)cc(O)c2)cc1 [resveratrol]
[3]; two days of cold exposure
  effect of resveratrol on viability: positive effects
[4]
  effect on sample viability: profound negative effect on sample viability
Human hepatocytes; normothermic hypoxic stress regime
  cell viability of hepatocytes: not for hepatocytes
[5]
  cell viability of C3A cells: extended the cell viability for C3A cells
Rat primary hepatocytes
  protection of rat primary hepatocytes from hypothermic stress: very effectively protected
[6]
  protection of human hepatocytes from cold stress / cell viability: able to completely protect; also recorded: extended

## C=C1/C(=C\C=C2/CCC[C@]3(C)[C@@H]([C@H](C)CCCC(C)(C)O)CC[C@@H]23)C[C@@H](O)C[C@@H]1O [Vitamin D3, calcitriol]
[7]
  protection of cells under stress regime: protects cells
